Results: ChEMBL document CHEMBL4414672, “Synthesis of certain benzothieno[3,2-d]pyrimidine derivatives as a selective SIRT2 inhibitors” (Eur J Med Chem, 2020)

Legend:
Type in all cases: functional
CCRF-CEM = assay: Growth inhibition of human CCRF-CEM cells at 10^-5 M incubated for 48 hrs by sulforhodamine B assay; details: read-out: GI
OVCAR-8 = assay: Growth inhibition of human OVCAR8 cells at 10^-5 M incubated for 48 hrs by sulforhodamine B assay; details: OVCAR-8, 48 h, read-out: GI
A498 = assay: Growth inhibition of human A498 cells at 10^-5 M incubated for 48 hrs by sulforhodamine B assay; details: A498, 48 h, read-out: GI
ACHN = assay: Growth inhibition of human ACHN cells at 10^-5 M incubated for 48 hrs by sulforhodamine B assay; details: read-out: GI
SR = assay: Growth inhibition of human SR cells at 10^-5 M incubated for 48 hrs by sulforhodamine B assay; details: read-out: GI
SK-MEL-5 = assay: Growth inhibition of human SK-MEL-5 cells at 10^-5 M incubated for 48 hrs by sulforhodamine B assay; details: SK-MEL-5, 48 h, read-out: GI
SN12C = assay: Growth inhibition of human SN12C cells at 10^-5 M incubated for 48 hrs by sulforhodamine B assay; details: read-out: GI
A549 = assay: Growth inhibition of human A549/ATCC cells at 10^-5 M incubated for 48 hrs by sulforhodamine B assay; details: A549, 48 h, read-out: GI
Hs-578T = assay: Growth inhibition of human Hs 578T cells at 10^-5 M incubated for 48 hrs by sulforhodamine B assay; details: read-out: GI
T47D = assay: Growth inhibition of human T47D cells at 10^-5 M incubated for 48 hrs by sulforhodamine B assay; details: read-out: GI
TK-10 = assay: Growth inhibition of human TK10 cells at 10^-5 M incubated for 48 hrs by sulforhodamine B assay; details: TK-10, 48 h, read-out: GI
OVCAR-5 = assay: Growth inhibition of human OVCAR5 cells at 10^-5 M incubated for 48 hrs by sulforhodamine B assay; details: OVCAR-5, 48 h, read-out: GI
786-0 = assay: Growth inhibition of human 786-0 cells at 10^-5 M incubated for 48 hrs by sulforhodamine B assay; details: 786-0, 48 h, read-out: GI
OVCAR-3 = assay: Growth inhibition of human OVCAR3 cells at 10^-5 M incubated for 48 hrs by sulforhodamine B assay; details: OVCAR-3, 48 h, read-out: GI
LOX IMVI = assay: Growth inhibition of human LOXIMVI cells at 10^-5 M incubated for 48 hrs by sulforhodamine B assay; details: read-out: GI
DU-145 = assay: Growth inhibition of human DU145 cells at 10^-5 M incubated for 48 hrs by sulforhodamine B assay; details: DU-145, 48 h, read-out: GI
HCT-15 = assay: Growth inhibition of human HCT15 cells at 10^-5 M incubated for 48 hrs by sulforhodamine B assay; details: HCT-15, 48 h, read-out: GI
IGROV-1 = assay: Growth inhibition of human IGROV1 cells at 10^-5 M incubated for 48 hrs by sulforhodamine B assay; details: IGROV-1, 48 h, read-out: GI
MCF7 = assay: Growth inhibition of human MCF7 cells at 10^-5 M incubated for 48 hrs by sulforhodamine B assay; details: MCF7, 48 h, read-out: GI
SW-620 = assay: Growth inhibition of human SW620 cells at 10^-5 M incubated for 48 hrs by sulforhodamine B assay; details: SW-620, 48 h, read-out: GI
SF-295 = assay: Growth inhibition of human SF295 cells at 10^-5 M incubated for 48 hrs by sulforhodamine B assay; details: SF-295, 48 h, read-out: GI
M14 = assay: Growth inhibition of human M14 cells at 10^-5 M incubated for 48 hrs by sulforhodamine B assay; details: M14, 48 h, read-out: GI
SNB-75 = assay: Growth inhibition of human SNB75 cells at 10^-5 M incubated for 48 hrs by sulforhodamine B assay; details: SNB-75, 48 h, read-out: GI
SK-OV-3 = assay: Growth inhibition of human SKOV3 cells at 10^-5 M incubated for 48 hrs by sulforhodamine B assay; details: SK-OV-3, 48 h, read-out: GI
RXF 393 = assay: Growth inhibition of human RXF393 cells at 10^-5 M incubated for 48 hrs by sulforhodamine B assay; details: RXF 393, 48 h, read-out: GI
MOLT-4 = assay: Growth inhibition of human MOLT4 cells at 10^-5 M incubated for 48 hrs by sulforhodamine B assay; details: MOLT-4, 48 h, read-out: GI
NCI-H522 = assay: Growth inhibition of human NCI-H522 cells at 10^-5 M incubated for 48 hrs by sulforhodamine B assay; details: NCI-H522, 48 h, read-out: GI
SNB-19 = assay: Growth inhibition of human SNB19 cells at 10^-5 M incubated for 48 hrs by sulforhodamine B assay; details: SNB-19, 48 h, read-out: GI
NCI-H460 = assay: Growth inhibition of human NCI-H460 cells at 10^-5 M incubated for 48 hrs by sulforhodamine B assay; details: NCI-H460, 48 h, read-out: GI
HL-60(TB) = assay: Growth inhibition of human HL-60(TB) cells at 10^-5 M incubated for 48 hrs by sulforhodamine B assay; details: HL-60, 48 h, read-out: GI
NCI-H322M = assay: Growth inhibition of human NCI-H322M cells at 10^-5 M incubated for 48 hrs by sulforhodamine B assay; details: read-out: GI
UACC-62 = assay: Growth inhibition of human UACC62 cells at 10^-5 M incubated for 48 hrs by sulforhodamine B assay; details: UACC-62, 48 h, read-out: GI
Malme-3M = assay: Growth inhibition of human MALME-3M cells at 10^-5 M incubated for 48 hrs by sulforhodamine B assay; details: read-out: GI
MDA-MB-231 = assay: Growth inhibition of human MDA-MB-231 cells at 10^-5 M incubated for 48 hrs by sulforhodamine B assay; details: MDA-MB-231, 48 h, read-out: GI
SF-268 = assay: Growth inhibition of human SF268 cells at 10^-5 M incubated for 48 hrs by sulforhodamine B assay; details: SF-268, 48 h, read-out: GI
NCI/ADR-RES = assay: Growth inhibition of human NCI/ADR-RES cells at 10^-5 M incubated for 48 hrs by sulforhodamine B assay; details: read-out: GI
HCT-116 = assay: Growth inhibition of human HCT116 cells at 10^-5 M incubated for 48 hrs by sulforhodamine B assay; details: HCT-116, 48 h, read-out: GI
NCI-H23 = assay: Growth inhibition of human NCI-H23 cells at 10^-5 M incubated for 48 hrs by sulforhodamine B assay; details: NCI-H23, 48 h, read-out: GI
SK-MEL-28 = assay: Growth inhibition of human SK-MEL-28 cells at 10^-5 M incubated for 48 hrs by sulforhodamine B assay; details: SK-MEL-28, 48 h, read-out: GI

Compound	inhibition of growth at 10 µM (CCRF-CEM) [%]	inhibition of growth at 10 µM (OVCAR-8) [%]	inhibition of growth at 10 µM (A498) [%]	inhibition of growth at 10 µM (ACHN) [%]	inhibition of growth at 10 µM (SR) [%]	inhibition of growth at 10 µM (SK-MEL-5) [%]	inhibition of growth at 10 µM (SN12C) [%]	inhibition of growth at 10 µM (A549) [%]	inhibition of growth at 10 µM (Hs-578T) [%]	inhibition of growth at 10 µM (T47D) [%]	inhibition of growth at 10 µM (TK-10) [%]	inhibition of growth at 10 µM (OVCAR-5) [%]	inhibition of growth at 10 µM (786-0) [%]	inhibition of growth at 10 µM (OVCAR-3) [%]	inhibition of growth at 10 µM (LOX IMVI) [%]	inhibition of growth at 10 µM (DU-145) [%]	inhibition of growth at 10 µM (HCT-15) [%]	inhibition of growth at 10 µM (IGROV-1) [%]	inhibition of growth at 10 µM (MCF7) [%]	inhibition of growth at 10 µM (SW-620) [%]	also measured
O=C1Nc2c(sc3ccc(Cl)cc23)C(c2ccccc2O)N1 (stereo not drawn)	-4.19	3.5	17.4	9.18	19.1	4.49	7.73	-1.35	3.74	18.1	-18.6	1.92	1.65	4.91	-0.62	-8.18	2	19.7	-8.18	-1.05	inhibition of growth at 10 µM (SF-295): 3.22%; inhibition of growth at 10 µM (M14): 2.49%; inhibition of growth at 10 µM (SNB-75): 27.4%; inhibition of growth at 10 µM (SK-OV-3): 4.45%; inhibition of growth at 10 µM (RXF 393): -4.74%; inhibition of growth at 10 µM (MOLT-4): 14.7%; inhibition of growth at 10 µM (NCI-H522): 16%; inhibition of growth at 10 µM (SNB-19): 2.91%; inhibition of growth at 10 µM (NCI-H460): 6.65%; inhibition of growth at 10 µM (HL-60(TB)): 1.61%; inhibition of growth at 10 µM (NCI-H322M): 7.77%; inhibition of growth at 10 µM (UACC-62): 13.9%; inhibition of growth at 10 µM (Malme-3M): 15.8%; inhibition of growth at 10 µM (MDA-MB-231): 19.7%; inhibition of growth at 10 µM (SF-268): 7.91%; inhibition of growth at 10 µM (NCI/ADR-RES): 1.65%; inhibition of growth at 10 µM (HCT-116): 4.28%; inhibition of growth at 10 µM (NCI-H23): 13.5%; inhibition of growth at 10 µM (SK-MEL-28): -7.33%
Cc1cc(C)n(C2=Nc3c(sc4ccc(Cl)cc34)C(c3cccc([N+](=O)[O-])c3)N2)n1 (stereo not drawn)	-7.22	0.5	1.15	11.2	-4.84	4.68	5.84	3.8	0.17	13.2	-12.7	-4.21	-6.44	-2.22	0.51	-11.3	-0.63	20.6	20.6	-3.97	inhibition of growth at 10 µM (SF-295): 2.13%; inhibition of growth at 10 µM (M14): -4.17%; inhibition of growth at 10 µM (SNB-75): 7.66%; inhibition of growth at 10 µM (SK-OV-3): 11.4%; inhibition of growth at 10 µM (RXF 393): -9.71%; inhibition of growth at 10 µM (MOLT-4): 16.5%; inhibition of growth at 10 µM (NCI-H522): 10.8%; inhibition of growth at 10 µM (SNB-19): 3.18%; inhibition of growth at 10 µM (NCI-H460): 7.9%; inhibition of growth at 10 µM (HL-60(TB)): -2.76%; inhibition of growth at 10 µM (NCI-H322M): 0.71%; inhibition of growth at 10 µM (UACC-62): 9.64%; inhibition of growth at 10 µM (Malme-3M): -2.21%; inhibition of growth at 10 µM (MDA-MB-231): 18.8%; inhibition of growth at 10 µM (SF-268): 1.15%; inhibition of growth at 10 µM (NCI/ADR-RES): -2.52%; inhibition of growth at 10 µM (HCT-116): 5.98%; inhibition of growth at 10 µM (NCI-H23): 23%; inhibition of growth at 10 µM (SK-MEL-28): -16%
